Data: publication PMC11062894, “Protein-based bandpass filters for controlling cellular signaling with chemical inputs” (Nature Chemical Biology, 2023)
Values joined by “and” are separate entries in the source; they are usually repeats but may differ in a detail not shown here. Equal entries are not always repeated.

Test system: GEMS receptors with CBPvene (Bcl2–LD3 and Bcl2high variants), STAT3-driven SEAP in HEK293T cells
Test: GEMS SEAP reporter assay, CBPvene (Bcl2high, LD3-v and Bcl2-v variants) with venetoclax
Assay type: cell-based
[1] = CBPVene-v4, Venetoclax 10000 nM
[2] = CBPVene-v4-Bcl2v2, Venetoclax 1 nM
[3] = CBPVene-v4-Bcl2v2, Venetoclax 3.16 nM
[4] = CBPVene-v4-Bcl2v2, Venetoclax 10 nM
[5] = CBPVene-v4-Bcl2v2, Venetoclax 31.6 nM
[6] = CBPVene-v4-Bcl2v2, Venetoclax 100 nM
[7] = CBPVene-v4-Bcl2v2, Venetoclax 316 nM
[8] = CBPVene-v4-Bcl2v2, Venetoclax 1000 nM
[9] = CBPVene-v4-Bcl2v2, Venetoclax 3160 nM
[10] = CBPVene-v4-Bcl2v2, Venetoclax 10000 nM
[11] = CBPVene-v4-LD3v1, Venetoclax 1 nM
[12] = CBPVene-v4-LD3v1, Venetoclax 3.16 nM

Which “Raw data of Independent repeat of CBPVene-v4 vs CBPVene-v4-LD3v1” value (from here on “Raw data … vs CBPVene-v4-LD3v1”) (CBPVene-v4, Venetoclax 0.01 nM) does the source give for CC1(C)CCC(CN2CCN(c3ccc(C(=O)NS(=O)(=O)c4ccc(NCC5CCOCC5)c([N+](=O)[O-])c4)c(Oc4cnc5[nH]ccc5c4)c3)CC2)=C(c2ccc(Cl)cc2)C1 [Venetoclax] here?
Its value is 35.2999 and 34.8178 and 35.7656.

And the “Normalized data Figure 5c” value (CBPVene-v4, Venetoclax 1 nM)?
Its value is 4.2459 and 4.713 and 4.374.

What about the “Normalized data Figure 5f” value (CBPVene-v4, Venetoclax 1 nM) of the same compound?
Its value is 3.9625 and 4.391 and 3.175.

And the “Raw data Figure 5c” value (CBPVene-v4, Venetoclax 1 nM)?
The value was 40.3634 and 39.0365 and 35.7348.

What about the “Raw data Figure 5f” value (CBPVene-v4, Venetoclax 1 nM) of the same compound?
The value was 25.8055 and 26.2397 and 18.4029.

What about the “Raw data … vs CBPVene-v4-LD3v1” value (CBPVene-v4, Venetoclax 1 nM) of the same compound?
Its value is 38.7674 and 35.097 and 34.871.

And the “Normalized data Figure 5c” value (CBPVene-v4, Venetoclax 3.16 nM)?
The value was 3.941 and 4.809 and 4.361.

And the “Normalized data Figure 5f” value (CBPVene-v4, Venetoclax 3.16 nM)?
The value was 3.622 and 4.227 and 3.164.

And the “Raw data Figure 5c” value (CBPVene-v4, Venetoclax 3.16 nM)?
Its value is 37.466 and 39.8351 and 35.629.

And the “Raw data Figure 5f” value (CBPVene-v4, Venetoclax 3.16 nM)?
Its value is 23.589 and 25.2624 and 18.3382.

And the “Raw data … vs CBPVene-v4-LD3v1” value (CBPVene-v4, Venetoclax 3.16 nM)?
Its value is 37.9892 and 34.5814 and 35.8384.

What about the “Normalized data Figure 5c” value (CBPVene-v4, Venetoclax 10 nM) of the same compound?
The value was 8.251 and 9.2534 and 8.61.

What about the “Normalized data Figure 5f” value (CBPVene-v4, Venetoclax 10 nM) of the same compound?
The value was 5.138 and 5.367 and 4.508.

What about the “Raw data Figure 5c” value (CBPVene-v4, Venetoclax 10 nM) of the same compound?
The value was 78.4344 and 76.6512 and 70.3479.

And the “Raw data Figure 5f” value (CBPVene-v4, Venetoclax 10 nM)?
The value was 33.4586 and 32.0727 and 26.1315.

And the “Raw data … vs CBPVene-v4-LD3v1” value (CBPVene-v4, Venetoclax 10 nM)?
Its value is 40.747 and 40.7067 and 37.4113.

What about the “Normalized data Figure 5c” value (CBPVene-v4, Venetoclax 31.6 nM) of the same compound?
Its value is 23.4087 and 23.5513 and 23.3621.

And the “Normalized data Figure 5f” value (CBPVene-v4, Venetoclax 31.6 nM)?
The value was 15.4727 and 18.6639 and 9.968.

And the “Raw data Figure 5c” value (CBPVene-v4, Venetoclax 31.6 nM)?
Its value is 222.533 and 195.089 and 190.881.

And the “Raw data Figure 5f” value (CBPVene-v4, Venetoclax 31.6 nM)?
The value was 100.765 and 111.541 and 57.7785.

And the “Raw data … vs CBPVene-v4-LD3v1” value (CBPVene-v4, Venetoclax 31.6 nM)?
The value was 75.7769 and 63.5945 and 72.9306.

What about the “Normalized data Figure 5c” value (CBPVene-v4, Venetoclax 100 nM) of the same compound?
The value was 64.2766 and 73.1224 and 63.32.

And the “Normalized data Figure 5f” value (CBPVene-v4, Venetoclax 100 nM)?
Its value is 42.576 and 45.1446 and 47.2654.

And the “Raw data Figure 5c” value (CBPVene-v4, Venetoclax 100 nM)?
Its value is 611.042 and 605.715 and 517.36.

And the “Raw data Figure 5f” value (CBPVene-v4, Venetoclax 100 nM)?
Its value is 277.273 and 269.798 and 273.956.

What about the “Raw data … vs CBPVene-v4-LD3v1” value (CBPVene-v4, Venetoclax 100 nM) of the same compound?
Its value is 129.31 and 117.373 and 126.839.

And the “Normalized data Figure 5c” value (CBPVene-v4, Venetoclax 316 nM)?
The value was 100.

What about the “Normalized data Figure 5f” value (CBPVene-v4, Venetoclax 316 nM) of the same compound?
The value was 68.7371 and 83.2998 and 76.2167.

And the “Raw data Figure 5c” value (CBPVene-v4, Venetoclax 316 nM)?
Its value is 950.644 and 828.357 and 817.055.

What about the “Raw data Figure 5f” value (CBPVene-v4, Venetoclax 316 nM) of the same compound?
Its value is 447.645 and 497.825 and 441.762.

And the “Raw data … vs CBPVene-v4-LD3v1” value (CBPVene-v4, Venetoclax 316 nM)?
Its value is 169.324 and 158.179 and 180.661.

And the “Normalized data Figure 5c” value (CBPVene-v4, Venetoclax 1000 nM)?
The value was 99.3535 and 99.2484 and 89.7215.

What about the “Normalized data Figure 5f” value (CBPVene-v4, Venetoclax 1000 nM) of the same compound?
The value was 100.

What about the “Raw data Figure 5c” value (CBPVene-v4, Venetoclax 1000 nM) of the same compound?
The value was 944.498 and 822.131 and 733.074.

What about the “Raw data Figure 5f” value (CBPVene-v4, Venetoclax 1000 nM) of the same compound?
Its value is 651.243 and 597.631 and 579.613.

What about the “Raw data … vs CBPVene-v4-LD3v1” value (CBPVene-v4, Venetoclax 1000 nM) of the same compound?
Its value is 146.952 and 139.539 and 151.905.

And the “Normalized data Figure 5c” value (CBPVene-v4, Venetoclax 3160 nM)?
The value was 79.357 and 89.4953 and 82.0208.

And the “Normalized data Figure 5f” value (CBPVene-v4, Venetoclax 3160 nM)?
Its value is 65.0047 and 75.3611 and 76.07.

And the “Raw data Figure 5c” value (CBPVene-v4, Venetoclax 3160 nM)?
The value was 754.403 and 741.34 and 670.156.

And the “Raw data Figure 5f” value (CBPVene-v4, Venetoclax 3160 nM)?
The value was 423.338 and 450.382 and 440.912.

And the “Raw data … vs CBPVene-v4-LD3v1” value (CBPVene-v4, Venetoclax 3160 nM)?
Its value is 80.4284 and 77.0562 and 76.9119.

What about the “Normalized data Figure 5c” value [1] of the same compound?
The value was 37.7692 and 41.8946 and 33.9505.

And the “Normalized data Figure 5f” value [1]?
Its value is 42.6019 and 46.7992 and 47.9312.

And the “Raw data Figure 5c” value [1]?
The value was 359.051 and 347.036 and 277.394.

What about the “Raw data Figure 5f” value [1] of the same compound?
The value was 277.442 and 279.687 and 277.816.

And the “Raw data … vs CBPVene-v4-LD3v1” value [1]?
Its value is 30.3195 and 25.7432 and 26.899.

What about the “Normalized data Figure 5f” value [2] of the same compound?
The value was 10.7266 and 9.876 and 10.4991.

What about the “Raw data Figure 5f” value [2] of the same compound?
Its value is 31.1918 and 36.3952 and 31.7379.

And the “Normalized data Figure 5f” value [3]?
Its value is 10.8133 and 9.981 and 9.46.

And the “Raw data Figure 5f” value [3]?
Its value is 31.4437 and 36.7806 and 28.5959.

What about the “Normalized data Figure 5f” value [4] of the same compound?
Its value is 12.5098 and 10.2311 and 12.3238.

And the “Raw data Figure 5f” value [4]?
Its value is 36.377 and 37.7021 and 37.2539.

And the “Normalized data Figure 5f” value [5]?
Its value is 23.9871 and 21.8452 and 18.9874.

What about the “Raw data Figure 5f” value [5] of the same compound?
Its value is 69.7518 and 80.5008 and 57.3972.

What about the “Normalized data Figure 5f” value [6] of the same compound?
Its value is 72.8611 and 61.7154 and 72.9933.

What about the “Raw data Figure 5f” value [6] of the same compound?
Its value is 211.871 and 227.425 and 220.652.

And the “Normalized data Figure 5f” value [7]?
The value was 100.

What about the “Raw data Figure 5f” value [7] of the same compound?
The value was 290.788 and 368.506 and 302.291.

What about the “Normalized data Figure 5f” value [8] of the same compound?
Its value is 80.3655 and 74.9934 and 84.5393.

And the “Raw data Figure 5f” value [8]?
The value was 233.694 and 276.355 and 255.555.

And the “Normalized data Figure 5f” value [9]?
Its value is 44.2102 and 40.566 and 46.2986.

And the “Raw data Figure 5f” value [9]?
The value was 128.558 and 149.488 and 139.957.

What about the “Normalized data Figure 5f” value [10] of the same compound?
The value was 14.2742 and 12.3963 and 14.8986.

And the “Raw data Figure 5f” value [10]?
Its value is 41.5078 and 45.6809 and 45.0373.

And the “Raw data … vs CBPVene-v4-LD3v1” value (CBPVene-v4-LD3v1, Venetoclax 0.01 nM)?
The value was 13.3313 and 13.792 and 13.1319.

And the “Normalized data Figure 5c” value [11]?
The value was 19.7956 and 13.458 and 12.3801.

What about the “Raw data Figure 5c” value [11] of the same compound?
The value was 19.1053 and 16.682 and 17.9097.

What about the “Raw data … vs CBPVene-v4-LD3v1” value [11] of the same compound?
Its value is 12.6379 and 12.8648 and 13.2123.

What about the “Normalized data Figure 5c” value [12] of the same compound?
The value was 17.4061 and 14.8696 and 11.4945.

And the “Raw data Figure 5c” value [12]?
The value was 16.7992 and 18.4317 and 16.6285.

And the “Raw data … vs CBPVene-v4-LD3v1” value [12]?
Its value is 10.9947 and 13.5809 and 10.4154.

And the “Normalized data Figure 5c” value (CBPVene-v4-LD3v1, Venetoclax 10 nM)?
The value was 20.3471 and 18.6998 and 14.8112.
